These results are taken from US4622387A, “8-methionine calcitonin” (Armour Pharmaceutical Co., priority 1985, dated 1986).

Experiment [1] has as its system serum calcium concentration.
Experimental: Biological Assay Of Calcitonin Analogs In Vivo
The biological potency of [8-methionine]salmon calcitonin was determined by comparing the reduction of serum calcium concentration which followed administration by graded doses of [Met^8 ]SCT and synthetic salmon calcitonin standard. Rats were divided into four groups of seven animals, and each group was assigned at random to a dose of standard or test solution. Low and high doses were chosen from the linear portion of the dose-response curve. For the salmon calcitonin standard, the values were 0.7 and 2.1 mcg. peptide/100 g. body weight (BW). This dose approximates 3 and 9 MU/100 g. BW. Peptides were given by subcutaneous injection (0.2 ml/100 g. BW) and blood was withdrawn 1 hour later for serum calcium determination. Sera are processed and analyzed within two hours of collection. Results were analyzed within two hours of collection.
Experiment [2] relates to serum calcium (hypocalcemic potency). To be noted: Monikawa et al., Experientia 32(9), 1104-1106 (1976); cited from earlier work.

Where a SMILES comes first, the peptide text is derived from it. Bridges are numbered along the chain shown (N, C = ends).

On to `CC(C)C[C@H](NC(=O)[C@H](CCCCN)NC(=O)CNC(=O)[C@H](CC(C)C)NC(=O)[C@@H](NC(=O)[C@@H]1CSSC[C@H](N)C(=O)N[C@@H](CO)C(=O)N[C@@H](CC(N)=O)C(=O)N[C@@H](CC(C)C)C(=O)N[C@@H](CO)C(=O)N[C@@H]([C@@H](C)O)C(=O)N1)C(C)C)C(=O)N[C@@H](CO)C(=O)N[C@@H](CCC(N)=O)C(=O)N[C@@H](CCC(=O)O)C(=O)N[C@@H](CC(C)C)C(=O)N[C@@H](Cc1c[nH]cn1)C(=O)N[C@@H](CCCCN)C(=O)N[C@@H](CC(C)C)C(=O)N[C@@H](CCC(N)=O)C(=O)N[C@H](C(=O)N[C@@H](Cc1ccc(O)cc1)C(=O)N1CCC[C@H]1C(=O)N[C@@H](CCCNC(=N)N)C(=O)N[C@H](C(=O)N[C@@H](CC(N)=O)C(=O)N[C@H](C(=O)NCC(=O)N[C@@H](CO)C(=O)NCC(=O)N[C@H](C(=O)N1CCC[C@H]1C(N)=O)[C@@H](C)O)[C@@H](C)O)[C@@H](C)O)[C@@H](C)O` [standard salmon calcitonin, Salmon calcitonin], for which, in experiment [1] (standard salmon calcitonin, independently determined), the “potency content of the standard” value was “greater than 4,000 IU/mg”.
As for “(1,7-α-L-aminosuberic acid)eel calcitonin”, in experiment [2], the hypocalcemic potency result is “about 3400 Iu/mg”.
In the case of `CSCC[C@H](NC(=O)[C@@H]1CSSC[C@H](N)C(=O)N[C@@H](CO)C(=O)N[C@@H](CC(N)=O)C(=O)N[C@@H](CC(C)C)C(=O)N[C@@H](CO)C(=O)N[C@@H]([C@@H](C)O)C(=O)N1)C(=O)N[C@@H](CC(C)C)C(=O)NCC(=O)N[C@@H](CCCCN)C(=O)N[C@@H](CC(C)C)C(=O)N[C@@H](CO)C(=O)N[C@@H](CCC(N)=O)C(=O)N[C@@H](CCC(=O)O)C(=O)N[C@@H](CC(C)C)C(=O)N[C@@H](Cc1c[nH]cn1)C(=O)N[C@@H](CCCCN)C(=O)N[C@@H](CC(C)C)C(=O)N[C@@H](CCC(N)=O)C(=O)N[C@H](C(=O)N[C@@H](Cc1ccc(O)cc1)C(=O)N1CCC[C@H]1C(=O)N[C@@H](CCCNC(=N)N)C(=O)N[C@H](C(=O)N[C@@H](CC(N)=O)C(=O)N[C@H](C(=O)NCC(=O)N[C@@H](CO)C(=O)NCC(=O)N[C@H](C(=O)N1CCC[C@H]1C(N)=O)[C@@H](C)O)[C@@H](C)O)[C@@H](C)O)[C@@H](C)O` [[Met^8]SCT, [8-methionine]salmon calcitonin] (H-CSNLSTCMLGKLSQELHKLQTYPRTNTGSGTP-NH2; disulfide 1-7), the biological potency in experiment [1] (rat, in vivo, sc) turned out to be 5500 IU/mg.
Consider “eel calcitonin [synthetic eel calcitonin]”, for which the hypocalcemic potency entry in experiment [2] is “around 4300 Iu/mg”.
